{"source": "patent US12479820B2", "about": "“Pyridin-3-yl derivatives” (Idorsia Pharmaceuticals Ltd, priority 2019, dated 2025)"}
{"target": "T1, human LPA1 receptor (Homo sapiens, UniProt Q92633)", "T1 construct": "TEV protease site; Gal4-VP16 transcription factor; host or cells: Tango EDG2-bla U2OS cells", "T1 sequence (Q92633 whole entry, the tested form may be a part)": "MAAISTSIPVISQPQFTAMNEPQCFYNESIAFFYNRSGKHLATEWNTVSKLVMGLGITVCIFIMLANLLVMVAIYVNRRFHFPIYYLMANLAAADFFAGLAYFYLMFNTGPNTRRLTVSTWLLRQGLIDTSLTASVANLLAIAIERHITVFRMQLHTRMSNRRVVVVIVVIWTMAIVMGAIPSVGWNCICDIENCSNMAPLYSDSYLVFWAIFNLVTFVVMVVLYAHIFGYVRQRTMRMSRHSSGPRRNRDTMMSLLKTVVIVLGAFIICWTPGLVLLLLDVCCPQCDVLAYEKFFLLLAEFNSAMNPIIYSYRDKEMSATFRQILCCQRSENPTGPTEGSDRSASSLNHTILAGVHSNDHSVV", "assay": "Beta-arrestin recruitment assay to determine IC50 values for human LPAR1", "format": "cell-based", "details": "Tango EDG2-bla U2OS cells, antagonist assay, LPA 18:1 500 nM final", "text": "Beta-Arrestin Recruitment Assay to Determine IC50 Values for Human LPAR1\nThe Tango™ EDG2-bla U2OS cells are obtained from Invitrogen. These cells contain the human LPA1 receptor cDNA linked to a TEV protease site and a Gal4-VP16 transcription factor integrated into the Tango™ GPCR-bla U2OS parental cell line. This parental cell line stably expresses a beta-arrestin/TEV protease fusion protein and the beta-lactamase (bla) reporter gene under the control of a UAS response element. Upon LPA (agonist) binding, LPA1 receptor gets activated, leading to arrestin-protease recruitment and proteolytic release of the transcription factor: The transcription factor then regulates transcription of a beta-lactamase reporter construct, which is measured upon addition of the live-cell substrate.\n10′000 Tango™ EDG2-bla U2OS cells are seeded in a 384-well black with clear bottom plate in 30 μl Freestyle 293 Expression Medium (Invitrogen) and incubated for 20 h at 37° C., 5% CO2. For antagonist assays, 5 μl of test compound (dilution series in DMSO/Freestyle 293 Expression medium/0.1% fatty acid free BSA (Sigma)) or buffer control are added per well and incubated for 30 min at 37° C., 5% CO2. 5 μl of LPA 18:1 (500 nM final) (solution in Freestyle 293 Expression medium/0.1% fatty acid free BSA (Sigma)) are added per well and the plate incubated for 16 h at 37° C., 5% CO2. Cells are then loaded with LiveBLAzer-FRET™ B/G Substrate (Invitrogen) for 2 h in the dark and the fluorescence emission at 460 nm and 530 nm is measured using the SynergyMx reader (BioTek). Following the background subtraction from both channels, the 460/530 nm emission ratio for each well is calculated, then plotted and fitted to a 4-parameter logistic function to obtain IC50 values. IC50 is the concentration of antagonist inhibiting 50% of the maximal response.", "units": {"IC50": "nM"}}
{"compound": "COc1cc(Cl)ncc1NC(=O)C1(c2ccccc2C(C)C)CN(C(C)=O)C1", "note": "[Example 19-2, 1-acetyl-N-(6-chloro-4-methoxypyridin-3-yl)-3-(2-isopropylphenyl)azetidine-3-carboxamide]", "IC50": 19}
{"compound": "COc1cc(Cl)ncc1NC(=O)C1(c2ccccc2C(C)C)CN(C=O)C1", "note": "[Example 19-3, N-(6-chloro-4-methoxypyridin-3-yl)-1-formyl-3-(2-isopropylphenyl)azetidine-3-carboxamide]", "IC50": 9}
{"compound": "COc1cc(Cl)ncc1NC(=O)C1(c2ccccc2C(C)C)CN(C(=O)C2COC2)C1", "note": "[Example 19-4, N-(6-chloro-4-methoxypyridin-3-yl)-3-(2-isopropylphenyl)-1-(oxetane-3-carbonyl)azetidine-3-carboxamide]", "IC50": 385}
{"compound": "COc1cc(Cl)ncc1NC(=O)C1(c2ccccc2C(C)C)CN(C(=O)c2cc(O)no2)C1", "note": "[Example 19-5, N-(6-chloro-4-methoxypyridin-3-yl)-1-(3-hydroxyisoxazole-5-carbonyl)-3-(2-isopropylphenyl)azetidine-3-carboxamide]", "IC50": 270}
{"compound": "COc1cc(Cl)ncc1NC(=O)C1(c2ccccc2C(C)C)CN(C(=O)c2noc(O)n2)C1", "note": "[Example 19-6, N-(6-chloro-4-methoxypyridin-3-yl)-1-(5-hydroxy-1,2,4-oxadiazole-3-carbonyl)-3-(2-isopropylphenyl)azetidine-3-carboxamide]", "IC50": 61}
{"compound": "COc1cc(Cl)ncc1NC(=O)C1(c2ccccc2C(C)C)CN(C(=O)Cn2nccn2)C1", "note": "[Example 19-7, 1-(2-(2H-1,2,3-triazol-2-yl)acetyl)-N-(6-chloro-4-methoxypyridin-3-yl)-3-(2-isopropylphenyl)azetidine-3-carboxamide]", "IC50": 15}
{"compound": "COc1cc(Cl)ncc1NC(=O)C1(c2ccccc2C(C)C)CN(C(=O)Cn2cc(C)nn2)C1", "note": "[Example 19-8, N-(6-chloro-4-methoxypyridin-3-yl)-3-(2-isopropylphenyl)-1-(2-(4-methyl-1H-1,2,3-triazol-1-yl)acetyl)azetidine-3-carboxamide]", "IC50": 43}
{"compound": "COc1cc(Cl)ncc1NC(=O)C1(c2ccccc2C(C)C)CN(C(=O)Cn2cc(CO)nn2)C1", "note": "[Example 19-9, N-(6-chloro-4-methoxypyridin-3-yl)-1-(2-(4-(hydroxymethyl)-1H-1,2,3-triazol-1-yl)acetyl)-3-(2-isopropylphenyl)azetidine-3-carboxamide]", "IC50": 52}
{"compound": "COc1cc(Cl)ncc1NC(=O)C1(c2ccccc2C(C)C)CN(C(=O)Cn2ncnn2)C1", "note": "[Example 19-10, 1-(2-(2H-tetrazol-2-yl)acetyl)-N-(6-chloro-4-methoxypyridin-3-yl)-3-(2-isopropylphenyl)azetidine-3-carboxamide]", "IC50": 17}
{"compound": "COc1cc(Cl)ncc1NC(=O)C1(c2ccccc2C(C)C)CN(C(=O)Cn2ccnn2)C1", "note": "[Example 19-11, 1-(2-(1H-1,2,3-triazol-1-yl)acetyl)-N-(6-chloro-4-methoxypyridin-3-yl)-3-(2-isopropylphenyl)azetidine-3-carboxamide]", "IC50": 107}
{"compound": "COc1cc(Cl)ncc1NC(=O)C1(c2ccccc2C(C)C)CN(C(=O)Cc2c[nH]nc2O)C1", "note": "[Example 19-12, N-(6-chloro-4-methoxypyridin-3-yl)-1-(2-(3-hydroxy-1H-pyrazol-4-yl)acetyl)-3-(2-isopropylphenyl)azetidine-3-carboxamide]", "IC50": 24}
{"compound": "COc1cc(Cl)ncc1NC(=O)C1(c2ccccc2C(C)C)CN(C(=O)Cc2cc(O)n[nH]2)C1", "note": "[Example 19-13, N-(6-chloro-4-methoxypyridin-3-yl)-1-(2-(3-hydroxy-1H-pyrazol-5-yl)acetyl)-3-(2-isopropylphenyl)azetidine-3-carboxamide]", "IC50": 112}
{"compound": "COc1cc(Cl)ncc1NC(=O)C1(c2ccccc2C(C)C)CN(C(=O)CNS(N)(=O)=O)C1", "note": "[Example 19-14, N-(6-chloro-4-methoxypyridin-3-yl)-3-(2-isopropylphenyl)-1-(sulfamoylglycyl)azetidine-3-carboxamide]", "IC50": 67}
